# Test results: article PMC2632993, “Conformational changes in α7 acetylcholine receptors underlying allosteric modulation by divalent cations” (BMC Pharmacology, 2009)
# Entries after “also recorded” stand apart in the source; their conditions may differ.
# Tests used:
# Type in all cases: cell-based, chick
# [1] = biological target: α7 AChR E^172C mutant (C^115A/L^247T background) (Gallus gallus, UniProt P22770, C138A/E195C/L270T); test: ACh dose-response, two-electrode voltage clamp in Xenopus oocytes
# From the text: (§1) A cDNA clone of the chick α7 receptor containing two mutations (C^115A, L^247T) was used as the parental phenotype for mutations described in this study. We mutated the lone unpaired cysteine in the extracellular domain (C^115) to alanine to allow for a more straightforward interpretation of thiol modification experiments. […] We included the mutation of leucine 247 in the M2 transmembrane domain (L^247T; L9'T) because of its large current amplitudes and non-desensitizing kinetics compared to wild-type α7 receptors. […] All mutations were introduced by site-directed mutagenesis using the QuikChange method (Agilent Technologies, La Jolla, CA) as described previously, and were confirmed by DNA sequencing.
# (§2) cRNA was prepared using the T7 RNA polymerase and mMessage mMachine kit as described by the manufacturer (Applied Biosystems, Austin, TX). Oocytes were surgically removed and prepared from female Xenopus laevis in accordance with UNC Institutional Animal Care and Use Committee guidelines. Oocytes were injected with 20 ng of cRNA and incubated at 18°C in ND96 (96 mM NaCl, 2 mM KCl, 1 mM MgCl2, 1.8 mM CaCl2, 5 mM Na pyruvate, 50 μg/ml gentamicin, 5 mM HEPES, pH 7.5) for 2–5 days before use. For some mutants we co-injected cRNA encoding the human RIC-3 [38], a protein shown to enhance expression of α7 AChRs in both mammalian cells and oocytes.
# (§3) Oocytes were superfused in normal extracellular solution containing a reduced Ca^2+ concentration (ESLC; 96 mM NaCl, 2 mM KCl, 1 mM MgCl2, 0.1 mM CaCl2, and 10 mM HEPES, pH 7.5). […] Two-electrode voltage clamp was performed with a GeneClamp 500B controlled by pCLAMP8 software (Molecular Devices, Sunnyvale, CA). Electrodes were filled with 3 M KCl contacting Ag-AgCl wires and had resistances of 0.5 to 2.0 MΩ. Currents were recorded at a constant holding potential of -60 mV. Currents were low pass filtered at 50 Hz and sampled at 100 Hz. Agonist dose-response curves were obtained as described previously, and data were fit to the Hill equation using Origin software (Microcal Software, Northampton, MA).
# (§4) MTSEA was prepared daily in distilled water and stored on ice. Stock solution was diluted to the appropriate working concentration in ESLC immediately before each application. […] To measure the effect of Ba^2+ on modification rates we pre-applied 10 mM Ba^2+ for 30 seconds prior to co-application of 10 mM Ba^2+ plus MTSEA. […] Kinetic data were analyzed as described previously; rate data were fit to a single exponential to extract a pseudo-first order rate constant; this was divided by the MTSEA concentration used to determine the second order rate constant for thiol modification.
# [2] = biological target: α7 AChR E^44C mutant (C^115A/L^247T background) (Gallus gallus, UniProt P22770, C138A/E67C/L270T); test: as above
# From the text: as §1, §2, §3, §4
# [3] = biological target: α7 AChR M^37C mutant (C^115A/L^247T background) (Gallus gallus, UniProt P22770, C138A/L270T/M60C); test: as above; conditions: fraction of maximal ACh-evoked current evoked by 10 mM Ba^2+ in the absence of ACh
# From the text: as §1, §2, §3, §4
# [4] = biological target: α7 AChR M^40C/E^172Q mutant (C^115A/L^247T background) (Gallus gallus, UniProt P22770, C138A/E195Q/L270T/M63C); test: as above
# From the text: as §1, §2, §3, §4
# [5] = biological target: α7 AChR N^170C mutant (C^115A/L^247T background) (Gallus gallus, UniProt P22770, C138A/L270T/N193C); test: as above; conditions: co-expression with human RIC-3, fraction of maximal ACh-evoked current evoked by 10 mM Ba^2+ in the absence of ACh
# From the text: as §1, §2, §3, §4
# [6] = biological target: α7 AChR N^52C mutant (C^115A/L^247T background) (Gallus gallus, UniProt P22770, C138A/L270T/N75C); test: as above
# From the text: as §1, §2, §3, §4
# [7] = biological target: α7 C^115A/L^247T receptor (Gallus gallus, UniProt P22770, C138A/L270T); test: as above
# From the text: as §1, §2, §3, §4
# [8] = biological target: T1, α7 AChR M^40C mutant (C^115A/L^247T background) (Gallus gallus, UniProt P22770, C138A/L270T/M63C); conditions: fraction of maximal ACh-evoked current evoked by 10 mM Ba^2+ in the absence of ACh
# T1 construct: expressed in transfected cells; host or cells: Xenopus laevis oocytes injected with cRNA
# From the text: as §1, with “sequencing. […]” for “sequencing.”
# Oocytes were superfused in normal extracellular solution containing a reduced Ca^2+ concentration (ESLC; 96 mM NaCl, 2 mM KCl, 1 mM MgCl2, 0.1 mM CaCl2, and 10 mM HEPES, pH 7.5). […] Currents were recorded at a constant holding potential of -60 mV. […]
# MTSEA was prepared daily in distilled water and stored on ice. […] Kinetic data were analyzed as described previously; rate data were fit to a single exponential to extract a pseudo-first order rate constant; this was divided by the MTSEA concentration used to determine the second order rate constant for thiol modification.
# [9] = co-expression with human RIC-3, fraction of maximal ACh-evoked current evoked by 10 mM Ba^2+ in the absence of ACh
# [10] = fraction of maximal ACh-evoked current evoked by 10 mM Ba^2+ in the absence of ACh
compound,measurement,setting,value
"[Ba+2].[Cl-].[Cl-] [Ba^2+, BaCl2]",positive allosteric modulation of ACh currents by Ba^2+,[1]; 10 mM Ba^2+,no positive allosteric modulation
same,Ba^2+ efficacy,[1]; [9],0.02
same,positive allosteric modulation of ACh currents by Ba^2+,[2]; 10 mM Ba^2+,eliminated; also recorded: no positive allosteric modulation
same,Ba^2+ efficacy,[2]; [10],0.01
same,Ba^2+ efficacy,[3],0.2
same,positive allosteric modulation of ACh currents by Ba^2+,[4]; 10 mM Ba^2+,not positively modulated
same,Ba^2+ efficacy,[4]; [9],0.02
same,Ba^2+ efficacy,[5],0.03
same,agonism by Ba^2+ in the absence of ACh,[6]; 10 mM Ba^2+,high partial agonism
same,Ba^2+ efficacy,[6]; [10],0.6
same,decrease in ACh EC50 (leftward shift in the dose-response curve) caused by Ba^2+,[7]; 10 mM Ba^2+,~ 10 fold
same,Ba^2+ efficacy,[7]; [10],0.1
same,Ba^2+ efficacy,[8],0.1
